PubChem BioAssay (NCI)
“And” between values parts separate entries of the source, which are not always exact repeats. Equal entries are not always repeated.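 Growth conditions: 96-well plates. Treatment: test compound, 48 hours, 5 concentrations. Analysis: linear interpolation between bracketing concentrations; unreached endpoints set to highest concentration. The concentration for 50% growth inhibition is given as GI50. TGI is the concentration that stops growth completely.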

Columns and labels:
Test in all cases: NCI tumour cell line growth inhibition, 48 h
HOP-18 NSCLC = test system: HOP-18 NSCLC
RXF-631 renal = test system: RXF-631 renal
T-47D breast = test system: T-47D breast
MDA-MB-231 breast = test system: MDA-MB-231 breast
MDA-N = test system: MDA-N
SN12K1 renal = test system: SN12K1 renal
MDA-MB-435 = test system: MDA-MB-435
PC-3 prostate = test system: PC-3 prostate
BT-549 breast = test system: BT-549 breast
P388 leukemia = test system: P388 leukemia
P388/ADR leukemia = test system: P388/ADR leukemia

Cn1c(=O)nc2n(-c3ccc(Cl)cc3)c(-c3ccccc3)c(-c3ccccc3)nc-2c1=O
TGI (HOP-18 NSCLC): > 100 µM
TGI (RXF-631 renal): > 100 µM

c1ccc(CN2CCc3[nH]c4ccccc4c3C2)cc1
TGI (T-47D breast): 47.2 µM
TGI (MDA-MB-231 breast): 48.9 µM
TGI (MDA-N): 44 µM
TGI (HOP-18 NSCLC): > 100 µM
TGI (SN12K1 renal): 29.1 µM
TGI (MDA-MB-435): 46.7 µM
TGI (PC-3 prostate): > 100 µM
TGI (RXF-631 renal): 38.5 µM
TGI (BT-549 breast): > 100 µM

CC[C@@]1(OC(=O)C(N)CCCCN)C(=O)OCc2c1cc1n(c2=O)Cc2cc3ccccc3nc2-1 (some centres undefined)
TGI (T-47D breast): 0.935 µM
TGI (MDA-MB-231 breast): > 100 µM
TGI (MDA-N): 4.44 µM
TGI (HOP-18 NSCLC): > 23 µM
TGI (MDA-MB-435): 1.26 µM
TGI (PC-3 prostate): > 100 µM
TGI (BT-549 breast): 10.9 µM

CN(C)CCC(/C=C/c1ccccc1)=N\Nc1ccc(Cl)c(Cl)c1
TGI (HOP-18 NSCLC): 8.28 µM
TGI (RXF-631 renal): 6.73 µM

N#Cc1ccc(/C=C(/C(=O)c2ccccc2)c2ccccc2)cc1
TGI (HOP-18 NSCLC): > 55.1 µM
TGI (RXF-631 renal): 29.8 µM

O=C1CC(c2c(-c3ccccc3)[nH]c3ccccc23)C(=O)N1c1ccccc1 (centres undefined)
TGI (RXF-631 renal): > 100 µM

O=C1N2Cc3c4ccc5c3CN3C(=O)N6Cc7c(ccc(c7CN1C6(c1ccccc1)C23c1ccccc1)OCCOCCOc1cc(Br)c(Br)cc1OCCOCCO4)OCCOCCOc1cc(Br)c(Br)cc1OCCOCCO5 (centres undefined)
TGI (HOP-18 NSCLC): > 100 µM
TGI (RXF-631 renal): > 100 µM

O=c1c2ccccc2[nH]c2c(O)ccc(O)c12
TGI (RXF-631 renal): 51.5 µM

C/C(=N\NC(=O)C[N+](C)(C)C)c1sc(-c2cccnc2)nc1C
TGI (RXF-631 renal): > 100 µM

O=c1[nH]c2cc([N+](=O)[O-])ccc2nc1/C(=N/Nc1ccccc1)C(O)c1ccco1 (centres undefined)
TGI (RXF-631 renal): > 100 µM

C[N+](C)(C)CC1CCC(C[N+](C)(C)C)C1=O (centres undefined)
TGI (T-47D breast): 8.28 µM
TGI (MDA-MB-231 breast): 41.3 µM
TGI (MDA-N): 19.3 µM
TGI (HOP-18 NSCLC): 1.85 µM
TGI (MDA-MB-435): 30.7 µM
TGI (PC-3 prostate): 31.3 µM
TGI (RXF-631 renal): 36.4 µM
TGI (BT-549 breast): 30.7 µM

COc1ccc2c3c([nH]c(=O)c2c1C(=O)O)-c1ccccc1CC3
TGI (RXF-631 renal): > 100 µM

CC(C)c1ccc(C2NC(=S)NC3=C2c2ccccc2C3=O)cc1 (centres undefined)
TGI (T-47D breast): 35.5 µM
TGI (MDA-MB-231 breast): 31 µM
TGI (MDA-N): 20.6 µM
TGI (MDA-MB-435): 21.4 µM
TGI (PC-3 prostate): 23.5 µM
TGI (RXF-631 renal): > 100 µM
TGI (BT-549 breast): 31.6 µM

CC1=CC(C)(c2c[nH]c3ccccc23)CC(C)(C)c2c1[nH]c1ccccc21 (centres undefined)
TGI (HOP-18 NSCLC): > 100 µM
TGI (RXF-631 renal): 31.8 µM

O=C(O)[C@@H]1OCCOCCO[C@@H](C(=O)O)[C@H](C(=O)O)OCCOCCO[C@H]1C(=O)O
TGI (HOP-18 NSCLC): > 100 µM

CCCCCCCCOCC(O)CO (centres undefined)
TGI (HOP-18 NSCLC): > 100 µM
TGI (RXF-631 renal): > 100 µM

O=c1c2cc(Br)cc(Br)c2nc(CCCl)n1-c1ccc(O)c([N+](=O)[O-])c1
TGI (HOP-18 NSCLC): 30.4 µM

Cc1cccc(C)c1NC(=O)CCc1nnc2s/c(=C\c3ccc(N(C)C)cc3)c(=O)n12
TGI (RXF-631 renal): > 100 µM

CCOC(=O)C(=O)Nc1cc(Cl)c(Cl)cc1Cl
TGI (RXF-631 renal): > 100 µM

O=C1C(=C2CCCC2)CCC1CN1CCCCC1 (centres undefined)
TGI (HOP-18 NSCLC): 28.7 µM

C[P+](C)(C)C
TGI (HOP-18 NSCLC): > 100 µM
TGI (RXF-631 renal): > 100 µM

C/C(=N\NC(N)=S)c1ccc(C)c(C)c1
TGI (HOP-18 NSCLC): > 100 µM
TGI (RXF-631 renal): > 100 µM

C[C@H]1C/C=C/[C@H]2[C@@H]3O[C@]3(C)[C@@H](C)[C@H]3[C@H](Cc4ccccc4)NC(=O)[C@]32OC(=O)O/C=C/[C@@](C)(O)C1=O
TGI (MDA-MB-231 breast): 3.36 µM
TGI (P388 leukemia): 15.3 µM and 125 µM and 45.6 µM
TGI (MDA-N): 54 µM
GI50 (HOP-18 NSCLC): < 0.0116 µM
TGI (HOP-18 NSCLC): 0.162 µM
GI50 (SN12K1 renal): 0.0125 µM
GI50 (P388/ADR leukemia): 0.434 µM and 0.194 µM and 0.69 µM
TGI (P388/ADR leukemia): 10.5 µM and 14 µM and 40.9 µM

CCOC(=O)C1C=C2O[C@@H]3OC4(CCCCC4)O[C@@H]3C2C2C(=O)CCC(=O)[C@@]12C(=O)OC (some centres undefined)
TGI (HOP-18 NSCLC): > 100 µM
TGI (RXF-631 renal): > 100 µM

Cc1cccc(C)c1NC(=O)CCC/C(CC(=O)c1ccc(F)cc1)=N\NC(=O)C(=O)NN
TGI (HOP-18 NSCLC): > 100 µM
TGI (RXF-631 renal): > 100 µM
